Measurements as given in patent US20090093469A1, “Phenylaminopropanol Derivatives and Methods of Their Use” (WYETH, priority 2004, published 2009).
Where a name gives a salt, the structure may show the parent alone.

Target: T1, hNET (Homo sapiens, UniProt P23975)
T1 construct: expressed in transfected cells
Experiment: Norepinephrine (NE) uptake assay in MDCK-Net6 cells stably transfected with human hNET
Format: cell-based
Settings: MDCK-Net6, read-out: % Inhibition @ 1 μM (hNET)

T1 sequence (P23975 whole entry): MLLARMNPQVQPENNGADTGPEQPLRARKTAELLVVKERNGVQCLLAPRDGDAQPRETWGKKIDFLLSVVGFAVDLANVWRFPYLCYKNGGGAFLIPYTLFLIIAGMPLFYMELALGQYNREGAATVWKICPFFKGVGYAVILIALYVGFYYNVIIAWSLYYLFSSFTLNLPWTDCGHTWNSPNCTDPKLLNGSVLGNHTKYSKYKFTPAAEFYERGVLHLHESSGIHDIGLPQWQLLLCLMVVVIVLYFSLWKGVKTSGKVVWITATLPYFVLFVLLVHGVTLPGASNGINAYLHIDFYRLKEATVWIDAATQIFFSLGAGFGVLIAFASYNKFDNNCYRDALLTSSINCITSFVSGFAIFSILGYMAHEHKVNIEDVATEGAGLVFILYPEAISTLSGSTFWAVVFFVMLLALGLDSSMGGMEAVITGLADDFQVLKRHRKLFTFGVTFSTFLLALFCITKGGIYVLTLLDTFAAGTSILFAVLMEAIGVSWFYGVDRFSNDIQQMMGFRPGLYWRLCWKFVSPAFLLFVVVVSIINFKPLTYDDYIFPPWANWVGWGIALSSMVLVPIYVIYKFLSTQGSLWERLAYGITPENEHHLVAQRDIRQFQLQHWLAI

Row | Compound | inhibition at 1 µM [%]
1 | CCNC[C@@H](O)[C@H](c1ccccc1)n1c(=O)n(C(C)C)c2ccc(F)cc21 [Example 204, 3-[(1S,2R)-3-(ethylamino)-2-hydroxy-1-phenylpropyl]-5-fluoro-1-isopropyl-1,3-dihydro-2H-benzimidazol-2-one hydrochloride] | 47.4
2 | CCn1c(=O)n([C@@H](c2ccccc2)[C@H](O)CNC)c2ccccc21 [Example 200, 1-Ethyl-3-[(1S,2R)-2-hydroxy-3-(methylamino)-1-phenylpropyl]-1,3-dihydro-2H-benzimidazol-2-one hydrochloride] | 97.9
3 | CNC[C@@H](O)[C@H](c1cccc(F)c1)n1ccc2c(C)cccc21 [Example 96, ((1S,2R)-1-(3-fluorophenyl)-3-(methylamino)-1-(4-methyl-1H-indol-1-yl)propan-2-ol hydrochloride] | 98.2
4 | CNC[C@@H](O)[C@H](c1cccc(F)c1)n1ccc2ccccc21 [Example 47, (1S,2R)-1-(3-fluorophenyl)-1-(1H-indol-1-yl)-3-(methylamino)propan-2-ol hydrochloride] | 99.9
5 | CNC[C@@H](O)[C@H](c1ccccc1)n1c(=O)n(C(C)(C)C)c2ccccc21 [Example 192, 1-tert-Butyl-3-(2-hydroxy-3-methylamino-1-phenyl-propyl)-1,3-dihydro-benzoimidazol-2-one hydrochloride] | 54.6
6 | CNCC(O)[C@H](c1ccccc1)n1ccc2ccccc21 (stereo in doubt) [Example 23, (1S,2R)-1-(1H-indol-1-yl)-3-(methylamino)-1-phenylpropan-2-ol hydrochloride] | 89.7
7 | CNC[C@@H](O)[C@H](c1cccc(F)c1)n1ccc2cc(C)ccc21 [Example 92, ((1S,2R)-1-(3-fluorophenyl)-3-(methylamino)-1-(5-methyl-1H-indol-1-yl)propan-2-ol hydrochloride] | 85.8
8 | CNC[C@@H](O)[C@H](c1ccccc1)n1c(=O)n(C)c2ccccc21 [Example 205, 1-[(1S,2R)-2-hydroxy-3-(methylamino)-1-phenylpropyl]-3-methyl-1,3-dihydro-2H-benzimidazol-2-one hydrochloride] | 82.9

Same assay, conditions: test compound 1 μM; [3H]NE uptake, MDCK-Net6 cells; read-out: % Inhibition @ 1 μM (hNET)

Row | inhibition at 1 µM [%] | Compound
9 | 23.9 | CNC[C@@H](O)[C@H](c1cccc(F)c1)n1cc(-c2ccc(Cl)c(Cl)c2)c2ccccc21 [Example 115, (1S,2R)-1-[3-(3,4-dichlorophenyl)-1H-indol-1-yl]-1-(3-fluorophenyl)-3-(methylamino)propan-2-ol hydrochloride]
10 | 77.7 | CNC[C@@H](O)[C@H](c1ccc(OC)cc1)n1ccc2ccccc21 (racemic) [Example 70, (1SR,2RS)-1-(1H-indol-1-yl)-1-(4-methoxyphenyl)-3-(methylamino)propan-2-ol hydrochloride]
11 | 65 | CNC[C@@H](OC)[C@H](c1ccccc1)n1cc(C)c2cc(F)ccc21 [Example 123, [(2R,3S)-3-(5-fluoro-3-methyl-1H-indol-1-yl)-2-methoxy-3-phenylpropyl]methylamine hydrochloride]
12 | 97.1 | CNC[C@@H](O)[C@H](c1ccccc1)n1ccc2c(F)cccc21 [Example 182, (1S,2R)-1-(4-fluoro-1H-indol-1-yl)-3-(methylamino)-1-phenylpropan-2-ol hydrochloride]
13 | 94.7 | CNC[C@@H](O)[C@H](c1ccccc1)N1C(=O)C2(CC2)c2ccccc21 [Example 109, 1′-[(1S,2R)-2-hydroxy-3-(methylamino)-1-phenylpropyl]spiro-[cyclopropane-1,3′-indol]-2′(1′H)-one hydrochloride]
14 | 58 | CNC[C@@H](O)[C@H](c1cccc(F)c1)n1ccc2ccc(OC)cc21 [Example 81, (1S,2R)-1-(3-fluorophenyl)-1-(6-methoxy-1H-indol-1-yl)-3-(methyl-amino)propan-2-ol hydrochloride]
15 | 24.4 | O[C@@H](CNCc1ccncc1)[C@@H](c1ccccc1)n1ccc2ccccc21 (racemic) [Example 14, (1RS,2SR)-1-(1H-indol-1-yl)-1-phenyl-3-[(pyridin-4-ylmethyl)amino]propan-2-ol hydrochloride]
16 | 72 | CNC[C@@H](O)[C@H](c1cccc(F)c1)n1cc(-c2ccc(OC)cc2)c2ccccc21 [Example 169, (1S,2R)-1-(3-fluorophenyl)-1-[3-(4-methoxyphenyl)-1H-indol-1-yl]-3-(methylamino)propan-2-ol hydrochloride]
17 | 17.6 | O[C@@H](CN1CCOCC1)[C@@H](c1ccccc1)n1ccc2ccccc21 (racemic) [Example 3, (1RS,2SR)-1-(1H-indol-1-yl)-3-morpholin-4-yl-1-phenylpropan-2-ol hydrochloride]
18 | 21.8 | CNC[C@@H](O)[C@H](c1ccccc1)n1c(C)nc2ccccc21 (racemic) [Example 73, (1RS,2SR)-3-(methylamino)-1-(2-methyl-1H-benzimidazol-1-yl)-1-phenylpropan-2-ol hydrochloride]
19 | 99.3 | CNC[C@@H](O)[C@H](c1cccc(F)c1)n1cc(C(C)(C)C)c2ccccc21 [Example 189, (1S,2R)-1-(3-tert-butyl-1H-indol-1-yl)-1-(3-fluorophenyl)-3-(methylamino)propan-2-ol]
20 | 12.3 | O[C@H](CN1CCOCC1)[C@H](c1cccc(F)c1)n1ccc2ccccc21 [Example 56, (1S,2R)-1-(3-fluorophenyl)-1-(1H-indol-1-yl)-3-morpholin-4-ylpropan-2-ol hydrochloride]
21 | 96.6 | CNC[C@@H](O)[C@H](c1cccc(F)c1)n1cc(-c2cccc(C)c2)c2ccccc21 [Example 48, (1S,2R)-1-(3-fluorophenyl)-3-(methylamino)-1-[3-(3-methylphenyl)-1H-indol-1-yl]propan-2-ol hydrochloride]
22 | 98.3 | CNC[C@@H](O)[C@H](c1cccc(F)c1)n1cc(-c2ccc(C(C)(C)C)cc2)c2ccccc21 [Example 171, (1S,2R)-1-[3-(4-tert-butylphenyl)-1H-indol-1-yl]-1-(3-fluorophenyl)-3-(methylamino)propan-2-ol hydrochloride]
23 | 34.3 | O[C@@H](CN1CCNCC1)[C@@H](c1ccccc1)n1ccc2ccccc21 (racemic) [Example 13, (1RS,2SR)-1-(1H-indol-1-yl)-1-phenyl-3-piperazin-1-ylpropan-2-ol dihydrochloride]
24 | 76 | CNC[C@@H](O)[C@H](c1ccccc1)n1ccc2cc(C#N)ccc21 [Example 130, 1-[(1S,2R)-2-hydroxy-3-(methylamino)-1-phenylpropyl]-1H-indole-5-carbonitrile hydrochloride]
25 | 88 | CNC[C@@H](O)[C@H](c1cccc(F)c1)n1cc(-c2cccc(OC)c2)c2ccccc21 [Example 172, (1S,2R)-1-(3-fluorophenyl)-1-[3-(3-methoxyphenyl)-1H-indol-1-yl]-3-(methylamino)propan-2-ol hydrochloride]
26 | 99.1 | CNC[C@@H](O)[C@H](c1cc(F)cc(F)c1)N1CCc2ccc(F)cc21 [Example 174, (1S,2R)-1-(3,5-difluorophenyl)-1-(6-fluoro-2,3-dihydro-1H-indol-1-yl)-3-(methylamino)propan-2-ol hydrochloride]
27 | 53.7 | CNC[C@@](C)(O)[C@H](c1ccccc1)n1ccc2ccccc21 [Example 190, (1S,2R)-1-(1H-indol-1-yl)-2-methyl-3-(methylamino)-1-phenylpropan-2-ol hydrochloride]
28 | 92.6 | O[C@@H]([C@@H]1CCCN1)[C@@H](c1cccc(F)c1)n1ccc2ccccc21 [Example 105, (1S,2R)-2-(3-fluorophenyl)-2-(1H-indol-1-yl)-1-[(2S)-pyrrolidin-2-yl]ethanol hydrochloride]
29 | 96.4 | CNC[C@@H](O)[C@H](c1cccc(F)c1)n1cc(-c2ccc(C)cc2)c2ccccc21 [Example 170, (1S,2R)-1-(3-fluorophenyl)-3-(methylamino)-1-[3-(4-methylphenyl)-1H-indol-1-yl]propan-2-ol hydrochloride]
30 | 98.2 | CNC[C@@H](O)[C@H](c1cccc(C#N)c1)n1ccc2ccccc21 [Example 44, 3-[(1S,2R)-2-hydroxy-1-(1H-indol-1-yl)-3-(methylamino)propyl]benzonitrile hydrochloride]
31 | 99.6 | CNC[C@@H](O)[C@H](c1cc(F)cc(F)c1)n1ccc2ccccc21 [Example 157, (1S,2R)-1-(3,5-difluorophenyl)-1-(1H-indol-1-yl)-3-(methylamino)propan-2-ol hydrochloride]
